Tests used:
Acute toxicity in mice = conditions: mouse, in vivo, po, Table 2, read-out: LD50 (Table 2, head printed "50 (mg/kg) P.O. Orally")
Protocol: (§1) As illustrative evidence of the remarkable high gastric antisecretory activity of the compounds of the invention, tests were conducted on, and comparisons made with, closely similar compounds in the prior art. The following Tables 2 and 3 show the results of such tests according to previously identified techniques from the literature.
rats and acute toxicity in mice.
(§2) Effect on Shay ulceration in rats and acute toxicity in mice.

Shay ulceration in rats = test: Effect on Shay ulceration in rats; format: in vivo; conditions: for Inhibition (Shay ulceration): 10 rats; for Inhibition (Shay ulceration) / ED50: 13 hours after drug treatment; for Safety Margin LD50/ED50 (Shay ulceration): LD50 mice p.o. / ED50 Shay rats i.d., Table 3; for ED50: Rattus norvegicus, i.d., rats
Protocol: as §1, §2
Each drug was given either intraduodenally (i.d.) immediately after
pylorus ligation in a volume of 0.5 ml/100 g of body weight. The animals
were sacrificed 13 hours after drug treatment.

[1] = system: aspirin-induced gastric ulcers in pylorus-ligated rats; test: Effect on aspirin-induced gastric ulcers in pylorus-ligated rats; format: in vivo; conditions: for Inhibition (aspirin-induced gastric ulcers): 10 rats; for Inhibition (aspirin-induced gastric ulcers) / ED50: 7 hrs after aspirin 100 mg/kg p.o.; for Safety Margin LD50/ED50 (aspirin-induced ulcers): LD50 mice p.o. / ED50 pylorus-ligated rats i.d., Table 2; for ED50: Rattus norvegicus, i.d., pylorus-ligated rats
Protocol: as §1
Effect on aspirin-induced gastric ulcers in pylorus-ligated
Each drug was given […] intraduodenally (i.d.) immediately after pyloru
ligation in a volume of 0.5 ml/100 g of body weight. Animals were
sacrificed 7 hrs after aspirin (100 mg/kg, p.o.) administration.

SMILES	LD50 (Acute toxicity in mice)	Inhibition (Shay ulceration) (Shay ulceration in rats; 10 mg/kg i.d.)	Inhibition (Shay ulceration) (Shay ulceration in rats; 30 mg/kg i.d.)	Safety Margin LD50/ED50 (Shay ulceration) (Shay ulceration in rats)	ED50 (Shay ulceration in rats)	Inhibition (aspirin-induced gastric ulcers) ([1]; 10 mg/kg i.d.)	Inhibition (aspirin-induced gastric ulcers) ([1]; 30 mg/kg i.d.)	Safety Margin LD50/ED50 (aspirin-induced ulcers) [1]	ED50 [1]
NC(=S)C(c1ccccc1)c1cccnn1 (stereo not drawn) [Ex. 1, 2-Phenyl-2-(3-pyridazinyl)thioacetamide]	980 mg/kg	33.3%	95.8%	78.40	12.5 mg/kg	48.6%	97.7%	85.12	11.5 mg/kg
CCC(C(N)=S)c1ccccn1 (stereo not drawn) [U.S. Pat. No. 3,686,190 Ex. 1]	670 mg/kg	12.0%	46.5%	17.70	34 mg/kg	11.3%	45.7%	12.88	52 mg/kg
Cc1ccc(C(C(N)=S)c2ccccc2)nn1 (stereo not drawn) [Ex. 2, 2-Phenyl-(6-methyl-3-pyridazinyl)thioacetomide]	1700 mg/kg	50.0%	91.7%	154.54	11 mg/kg	3.2%	89.0%	80.95	21 mg/kg
NC(=S)C(c1ccccc1)c1cnccn1 (stereo not drawn) [U.S. Pat. No. 3,624,085 Ex. 12]	924 mg/kg	18.3%	57.7%	33.00	28 mg/kg	15.4%	50.8%	30.80	30 mg/kg
NC(=S)C(c1ccccc1)c1ncccn1 (stereo not drawn) [U.S. Pat. No. 3,624,085 Ex. 9]	1200 mg/kg	28.2%	65.0%	46.15	26 mg/kg	22.3%	74.0%	64.86	18.5 mg/kg
